From US20230391778A1, “INDOLIN-2-ONE OR PYRROLO -PYRIDIN -2 -ONE DERIVATIVES” (Hoffmann-La Roche Inc., priority 2014, published 2023)

How the values were obtained:
[1] = system: L-687,414-induced hyperlocomotion; experiment: L-687,414-induced hyperlocomotion; format: in vivo, mouse; details: Mus musculus; Dose ip 30 mg/kg, mice, 50 mg/kg s.c. L-687,414
Method: The described compounds of formula I reduce L-687,414-induced hyperlocomotion. This was assessed by using a computerized Digiscan 16 Animal Activity Monitoring System (Omnitech Electronics, Columbus, Ohio) to quantify locomotor activity. Animals were kept under a 12 h light/dark cycle and experiments were performed during the light period. Each activity monitoring chamber consisted of a Plexiglas box (41×41×28 cm; W×L×H) with sawdust bedding on the floor surrounded by invisible horizontal and vertical infrared sensor beams. The test boxes were divided by a Plexiglas cross providing each mouse with 20×20 cm of moving space. Cages were connected to a Digiscan Analyzer linked to a computer that constantly collected the beam status information. Records of photocell beam interruptions for individual animals were taken every 5 min over the duration of the experimental session and the sum of the first 6 periods was used as the final parameter. At least 8 mice were used in each treatment group. Compounds were administered either p.o. 15 min before a s.c. injection of 50 mg/kg of L-687,414, or i.p. at the same time as a s.c. injection of 50 mg/kg of L-687,414. Mice were then transferred from their home cage to the recording chambers for a 15-min habituation phase allowing free exploration of the new environment. Horizontal activity was then recorded for a 30-min time period. The % inhibition of L-687,414-induced hyperlocomotion was calculated according to the equation:
((Veh+L-687,414 horizontal activity−drug+L-687,414 horizontal activity)/Veh+L-687,414 horizontal activity)×100
ID50 values, defined as doses of each compound producing 50% inhibition of L-687,414-induced hyperlocomotion, were calculated by linear regression analysis of a dose-response data using an Excel-based computer-fitting program.
As data was not presupposed to be normally distributed, groups treated with test compounds were statistically compared with the control (vehicle-treated) group using one-tailed Mann Whitney U tests. In statistics, the Mann-Whitney U test (also called the Mann-Whitney-Wilcoxon (MWW) or Wilcoxon rank-sum test) is a non-parametric statistical hypothesis test for assessing whether one of two samples of independent observations tends to have larger values than the other. It is one of the most well-known non-parametric significance tests. […] P values given in table 1 are one-tailed since only decreases in locomotion were expected and tested for (Mann, H. B., Whitney, D. R. (1947), “On a Test of Whether one of Two Random Variables is Stochastically Larger than the Other”, Annals of Mathematical Statistics, 18 (1), 50-60).

mouse ENT-1 transporter = molecular target: T1, mouse ENT-1 transporter (Mus musculus, UniProt Q9JIM1); experiment: Measure of adenosine transport activity (ENT1 adenosine uptake inhibition); format: cell-based; details: stable cells expressing mouse ENT-1, [2,8-3H]-adenosine 6 nM, 20 min
T1 construct: expressed in transfected cells
T1 sequence (Q9JIM1 1-460): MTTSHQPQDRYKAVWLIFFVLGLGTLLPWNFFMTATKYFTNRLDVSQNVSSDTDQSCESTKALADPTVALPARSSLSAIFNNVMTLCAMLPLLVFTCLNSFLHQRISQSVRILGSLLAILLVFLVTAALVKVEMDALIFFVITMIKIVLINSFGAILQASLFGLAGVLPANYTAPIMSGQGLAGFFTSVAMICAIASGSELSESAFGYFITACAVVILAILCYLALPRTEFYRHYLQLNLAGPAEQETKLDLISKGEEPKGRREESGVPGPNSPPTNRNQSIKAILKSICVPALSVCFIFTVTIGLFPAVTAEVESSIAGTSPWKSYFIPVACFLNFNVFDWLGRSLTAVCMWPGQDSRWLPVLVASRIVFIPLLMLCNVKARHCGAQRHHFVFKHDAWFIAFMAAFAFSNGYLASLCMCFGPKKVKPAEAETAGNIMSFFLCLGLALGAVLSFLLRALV
In short: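 Stable mouse ENT-1 cells, 60,000/well, washed into pH 7.4 Hepes-Tris uptake buffer and incubated at RT with compound (1% DMSO final) for 20 min with shaking. Non-specific uptake defined with 10 μM NBTI; cell-associated radioactivity counted by scintillation after ice-cold washes.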

mice = experiment: SmartCube behavioral signature similarity analysis; format: in vivo, mouse; set-up: key to discrimination rate vs Clozapine (similarity analysis) / discrimination rate vs Olanzapine (similarity analysis) / discrimination rate vs Risperidone (similarity analysis): fraction; 0.5 = zero distinguishability between the two drugs
Excerpt: In addition to the reversal of L-687,414 induced hyperlocomotion experiment as described above, some compounds of the present invention have been tested in SmartCube®, an automated system in which the behaviors of compound-treated mice in response to multiple challenges are captured by digital video and analyzed with computer algorithms (Roberds et al., Frontiers in Neuroscience, 2011, Vol. 5, Art. 103, 1-4; Vadim Alexandrov, Dani Brunner, Taleen Hanania, Emer Leahy Eur. J. Pharmacol. 2015, 750, 82-99). In this way, the neuro-pharmacological effects of a test compound can be predicted by similarity to major classes of compounds, such as antipsychotics, anxiolytics and antidepressants.
As mentioned above, some compounds have been tested in SmartCube©, an analytical system developed by PsychoGenics Inc.
SmartCube® was used to compare the behavioral signature of a test compound to a database of behavioral signatures obtained from a large set of clinically approved reference drugs, grouped per indications. In this way, the neuro-pharmacological effects of a test compound can be predicted by similarity to major classes of compounds, such as antipsychotics, anxiolytics and antidepressants. This approach is ideally suited to screen collections of existing drugs or drug candidates with previously unknown neuropharmacology, which could expedite the development of new and unexpected treatments for psychiatric disorders.
Some compounds of the present invention were injected i.p. at different doses 15 minutes before the test. At least 8 mice were used in each treatment group. Digital videos of the subjects were processed with computer vision algorithms to extract over 2000 dependent measures including frequency and duration of many different behavioral states. The results of the classifications are presented as bar charts for each compound and dose (mg/kg), the Y-axis indicates the relative probability that the test compound will show efficacy in the specific CNS indication.
For comparison, the behavioral signatures of the atypical antipsychotics clozapine, olanzapine and risperidone are shown in FIG. 2. Compounds of the present invention show similar signatures to those of atypical antipsychotics. An independent analysis was performed on the unclassified data to determine the similarity of the example compounds to active doses of known atypical antipsychotics. For this analysis, we use discrimination rate as the measure of separability between the two drugs, i.e. one drug's “distinguishability” from another. A rate equal to 50% (or 0.5) corresponds to zero distinguishability. […] In most cases, the example compounds show a similarity to risperidone, clozapine and olanzapine with a discrimination rate of <0.70.

[2] = 5 mg/kg i.p., SmartCube, rate of 0.70 or lower = similar

IC50 (mouse ENT-1 transporter): 174 nM
SMILES: Cc1ncc(-c2ccc3c(c2)N(c2cnc(C)nc2)C(=O)C3(C)C)cn1 [Example 9, 3,3-Dimethyl-1,6-bis(2-methylpyrimidin-5-yl)indolin-2-one]
inhibition in vivo at 30 mg/kg [1]: 93.2%
SmartCube similarity to major drug classes (mice): similarity to atypical antipsychotics
discrimination rate vs Clozapine (similarity analysis) (mice; [2]): 0.65
discrimination rate vs Olanzapine (similarity analysis) (mice; [2]): 0.66
discrimination rate vs Risperidone (similarity analysis) (mice; [2]): 0.69
